Each compound was assayed against T1, pY641-STAT6 in PBMC (Homo sapiens, UniProt P42226) (assay: MSD-pSTAT-PBMC Assay (pSTAT6, IL-4 stimulated)). Conditions: PBMC, compound 3 hrs, then 1 ng/mL IL-4 for 10 min; Table 115; read-out: STAT6.
T1 construct: Cryopreserved Peripheral Blood Mononuclear Cells (PBMC) are from AllCells; host or cells: cryopreserved PBMC
T1 sequence (P42226 1-847): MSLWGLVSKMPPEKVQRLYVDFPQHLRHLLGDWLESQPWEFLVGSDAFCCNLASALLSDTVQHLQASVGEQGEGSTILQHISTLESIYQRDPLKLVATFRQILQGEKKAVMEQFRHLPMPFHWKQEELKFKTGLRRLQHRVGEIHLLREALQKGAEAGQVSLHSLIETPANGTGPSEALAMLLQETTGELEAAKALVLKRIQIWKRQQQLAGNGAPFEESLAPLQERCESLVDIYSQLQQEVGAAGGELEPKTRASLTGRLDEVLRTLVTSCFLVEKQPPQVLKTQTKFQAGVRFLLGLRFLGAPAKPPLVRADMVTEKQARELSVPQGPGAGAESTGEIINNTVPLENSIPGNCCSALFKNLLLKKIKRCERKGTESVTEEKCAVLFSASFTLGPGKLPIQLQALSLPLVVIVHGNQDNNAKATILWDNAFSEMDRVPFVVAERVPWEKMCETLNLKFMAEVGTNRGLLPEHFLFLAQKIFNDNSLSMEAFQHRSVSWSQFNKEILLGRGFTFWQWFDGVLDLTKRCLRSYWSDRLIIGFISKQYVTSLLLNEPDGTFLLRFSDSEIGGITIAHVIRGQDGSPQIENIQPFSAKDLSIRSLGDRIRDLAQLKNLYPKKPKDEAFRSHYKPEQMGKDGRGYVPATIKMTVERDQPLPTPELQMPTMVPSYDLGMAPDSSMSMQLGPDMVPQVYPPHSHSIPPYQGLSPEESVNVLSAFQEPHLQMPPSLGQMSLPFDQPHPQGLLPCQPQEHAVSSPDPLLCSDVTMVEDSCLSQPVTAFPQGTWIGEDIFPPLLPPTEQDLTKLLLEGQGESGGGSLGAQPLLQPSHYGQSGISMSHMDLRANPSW
Assay type: cell-based
Method in brief: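 PBMC (human, cryopreserved, overnight recovery) + cpd 3 hrs → IL-6 10 ng/mL (STAT3) or IL-4 1 ng/mL (STAT6) ×10 min → lysis with protease/phosphatase inhibitors → MSD capture/phospho detection. IC50, variable slope, DMSO-normalized.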

Row | Structure (SMILES) | IC50
1 | CCCOC(=O)[C@H](C)NP(=O)(Oc1ccccc1)[C@@H](F)c1ccc2sc(C(=O)N[C@H]3CCCC[C@H]4CC[C@@H](C(=O)N5C[C@H](c6cccnc6)[C@@H](C#N)C56CC6)N4C3=O)cc2c1 (stereo partly shown) [Compound 364] | < 0.1 µM
2 | CCCOC(=O)[C@H](C)NP(=O)(Oc1ccccc1)[C@@H](F)c1ccc2sc(C(=O)N[C@H]3CCCC[C@H]4CC[C@@H](C(=O)N5C[C@H](c6cccnc6)[C@@H](C#N)C56CC6)N4C3=O)cc2c1 (stereo partly shown) [Compound 365] | < 0.1 µM

Same assay, conditions: STAT6, PBMC, compound 3 hrs, then 1 ng/mL IL-4 for 10 min; Table 115

Row | Structure (SMILES) | IC50
3 | CCCOC(=O)[C@H](C)NP(=O)(Oc1ccccc1)[C@H](F)c1ccc2sc(C(=O)N[C@H]3C[C@H](C)C[C@H]4CC[C@@H](C(=O)N5C[C@H](c6ccccc6)[C@@H](C#N)C56CC6)N4C3=O)cc2c1 (stereo partly drawn) [Compound 352, propyl (((S)-(2-(((3S,6S,8S,9aR)-3-((6S,7R)-7-cyano-6-phenyl-4-azaspiro[2.4]heptane-4-carbonyl)-8-methyl-5-oxooctahydro-1H-pyrrolo[1,2-a]azepin-6-yl)carbamoyl)benzo [b]thiophen-5-yl)fluoromethyl) (phenoxy)phosphoryl)-L-alaninate] | < 0.1 µM
4 | CCCOC(=O)[C@H](C)NP(=O)(Oc1ccccc1)[C@@H](F)c1ccc2sc(C(=O)N[C@H]3C[C@@H](C)C[C@H]4CC[C@@H](C(=O)N5C[C@@H](c6cccnc6)CC56CC6)N4C3=O)cc2c1 (stereo partly drawn) [Compound 353, propyl (((R)-fluoro(2-(((3S,6S,8R,9aR)-8-methyl-5-oxo-3-((R)-6-(pyridin-3-yl)-4-azaspiro[2.4]heptane-4-carbonyl)octahydro-1H-pyrrolo[1,2-a]azepin-6-yl)carbamoyl)benzo [b]thiophen-5-yl)methyl)(phenoxy)phosphoryl)-L-alaninate] | < 0.1 µM
5 | C[C@H](NP(=O)(Oc1ccccc1)[C@@H](F)c1ccc2sc(C(=O)N[C@H]3CCC[C@H]4CC[C@@H](C(=O)N5C[C@@H](c6cccnc6)CC56CC6)N4C3=O)cc2c1)C(=O)OCc1nnnn1C (stereo partly drawn) [Compound 356, (1-methyl-1H-tetrazol-5-yl)methyl (((R)-fluoro(2-(((3S,6S,9aS)-5-oxo-3-((R)-6-(pyridin-3-yl)-4-azaspiro[2.4]heptane-4-carbonyl)octahydro-1H-pyrrolo[1,2-a]azepin-6-yl)carbamoyl)benzo [b]thiophen-5-yl)methyl)(phenoxy)phosphoryl)-L-alaninate] | 0.1 to 1 µM
6 | CCCOC(=O)[C@H](C)NP(=O)(Oc1cccc(OCCOC)c1)[C@@H](F)c1ccc2sc(C(=O)N[C@H]3CCC[C@H]4CC[C@@H](C(=O)N5C[C@@H](c6cccnc6)CC56CC6)N4C3=O)cc2c1 (stereo partly drawn) [Compound 357, propyl (((R)-fluoro(2-(((3S,6S,9aS)-5-oxo-3-((R)-6-(pyridin-3-yl)-4-azaspiro[2.4]heptane-4-carbonyl)octahydro-1H-pyrrolo[1,2-a]azepin-6-yl)carbamoyl)benzo [b]thiophen-5-yl)methyl)(3-(2-methoxyethoxy)phenoxy)phosphoryl)-L-alaninate] | < 0.1 µM
7 | COC(C)(C)COC(=O)[C@H](C)NP(=O)(Oc1ccccc1)[C@@H](F)c1ccc2sc(C(=O)N[C@H]3CCCC[C@H]4CC[C@@H](C(=O)N5C[C@@H](c6cccnc6)CC56CC6)N4C3=O)cc2c1 (stereo partly drawn) [Compound 358, 2-methoxy-2-methylpropyl (((R)-fluoro(2-(((3S,6S,10aS)-5-oxo-3-((R)-6-(pyridin-3-yl)-4-azaspiro[2.4]heptane-4-carbonyl)decahydropyrrolo[1,2-a]azocin-6-yl)carbamoyl)benzo [b]thiophen-5-yl)methyl)(phenoxy)phosphoryl)-L-alaninate] | < 0.1 µM
8 | CCCOC(=O)[C@H](C)NP(=O)(Oc1c(C)cccc1C)[C@H](F)c1ccc2sc(C(=O)N[C@H]3CCC[C@H]4CC[C@@H](C(=O)N5C[C@@H](c6cccnc6)CC56CC6)N4C3=O)cc2c1 (stereo partly drawn) [Compound 359, propyl ((2,6-dimethylphenoxy) ((S)-fluoro(2-(((3S,6S,9aS)-5-oxo-3-((R)-6-(pyridin-3-yl)-4-azaspiro[2.4]heptane-4-carbonyl)octahydro-1H-pyrrolo[1,2-a]azepin-6-yl)carbamoyl)benzo [b]thiophen-5-yl)methyl)phosphoryl)-L-alaninate] | < 0.1 µM
9 | C[C@H](NP(=O)(Oc1ccccc1)[C@@H](F)c1ccc2sc(C(=O)N[C@H]3CCCC[C@H]4CC[C@@H](C(=O)N5C[C@@H](c6cccnc6)CC56CC6)N4C3=O)cc2c1)C(=O)OCC1CCOCC1 (stereo partly drawn) [Compound 360, (tetrahydro-2H-pyran-4-yl)methyl (((R)-fluoro(2-(((3S,6S,10aS)-5-oxo-3-((R)-6-(pyridin-3-yl)-4-azaspiro[2.4]heptane-4-carbonyl)decahydropyrrolo[1,2-a]azocin-6-yl)carbamoyl)benzo [b]thiophen-5-yl)methyl)(phenoxy)phosphoryl)-L-alaninate] | < 0.1 µM
10 | COCCOC(=O)[C@H](C)NP(=O)(Oc1ccccc1)[C@@H](F)c1ccc2sc(C(=O)N[C@H]3CCC[C@H]4CC[C@@H](C(=O)N5C[C@@H](c6ccccc6)[C@H](C#N)C56CC6)N4C3=O)cc2c1 (stereo partly drawn) [Compound 361, 2-methoxyethyl (((R)-(2-(((3S,6S,9aS)-3-((6R,7S)-7-cyano-6-phenyl-4-azaspiro[2.4]heptane-4-carbonyl)-5-oxooctahydro-1H-pyrrolo[1,2-a]azepin-6-yl)carbamoyl)benzo [b]thiophen-5-yl)fluoromethyl) (phenoxy)phosphoryl)-L-alaninate] | < 0.1 µM
11 | C[C@H](NP(=O)(Oc1ccccc1)[C@@H](F)c1ccc2sc(C(=O)N[C@H]3CCC[C@H]4CC[C@@H](C(=O)N5C[C@@H](c6cccnc6)CC56CC6)N4C3=O)cc2c1)C(=O)OCc1cccnn1 (stereo partly drawn) [Compound 366, pyridazin-3-ylmethyl (((R)-fluoro(2-(((3S,6S,9aS)-5-oxo-3-((R)-6-(pyridin-3-yl)-4-azaspiro[2.4]heptane-4-carbonyl)octahydro-1H-pyrrolo[1,2-a]azepin-6-yl)carbamoyl)benzo [b]thiophen-5-yl)methyl)(phenoxy)phosphoryl)-L-alaninate] | 0.1 to 1 µM
12 | C[C@H](NP(=O)(Oc1ccccc1)[C@@H](F)c1ccc2sc(C(=O)N[C@H]3CCCC[C@H]4CC[C@@H](C(=O)N5C[C@@H](c6cccnc6)CC56CC6)N4C3=O)cc2c1)C(=O)OCC1COC1 (stereo partly drawn) [Compound 374, oxetan-3-ylmethyl (((R)-fluoro(2-(((3S,6S,10aS)-5-oxo-3-((R)-6-(pyridin-3-yl)-4-azaspiro[2.4]heptane-4-carbonyl)decahydropyrrolo[1,2-a]azocin-6-yl)carbamoyl)benzo [b]thiophen-5-yl)methyl)(phenoxy)phosphoryl)-L-alaninate] | < 0.1 µM
13 | COCCOC(=O)[C@H](C)NP(=O)(Oc1ccccc1)[C@@H](F)c1ccc2sc(C(=O)N[C@H]3CCCC[C@H]4CC[C@@H](C(=O)N5C[C@H](c6ccccc6)[C@@H](C#N)C56CC6)N4C3=O)cc2c1 (stereo partly drawn) [Compound 375, 2-methoxyethyl (((R)-(2-(((3S,6S,10aS)-3-((6S,7R)-7-cyano-6-phenyl-4-azaspiro[2.4]heptane-4-carbonyl)-5-oxodecahydropyrrolo [1,2-a]azocin-6-yl)carbamoyl)benzo [b]thiophen-5-yl)fluoromethyl) (phenoxy)phosphoryl)-L-alaninate] | < 0.1 µM

— patent US20250215029A1 (Recludix Pharma, Inc., priority 2022, published 2025)
